The values below come from patent publication US6329389A, “Amine compounds, their production and use” (Takeda Chemical Industries, Ltd., priority 1998, dated 2001).

pIC50: −log10 of the molar value. Counter-ions that a name gives are not always drawn.

Assay [1] has as its target T1, rat somatostatin receptor protein subtype 4 (rSSTR4) (Rattus norvegicus, UniProt P30937).
T1 construct: expressed in transfected cells; host or cells: CHO (dhfr-) cells, strain rSSTR4-20-25
Description: Binding inhibition of 125I-somatostatin-14, IC50, rat SSTR4 membrane fraction. Particulars: 125I-somatostatin-14, rat SSTR4 CHO cell membrane fraction, 25° C., 60 minutes.

Assay [2] concerns the target human somatostatin receptor protein subtype 4 (hSSTR4). The experiment in a line: Binding inhibition of 125I-somatostatin-14, IC50, SSTR4 membrane fraction. The conditions noted are these: 125I-somatostatin-14, human SSTR4 CHO cell membrane fraction, 25° C., 60 minutes.
For a further assay, the system named is rat astrocyte. The experiment in a line: Inhibitory effect on forskolin-stimulated accumulation of cAMP in rat astrocyte. The assay is classed as cell-based. The method, then: Inhibitory effect on forskolin-stimulated accumulation of cAMP in rat astrocyte
For measurement of the accumulated intracellular adenosine 3',5'-monophosphate (cAMP), newborn rat astrocytes prepared in accordance with the method of Mc carthy, K. D. et al. [Cell Biology, 85, 890-920, 1980] were proliferated in 24-well plate until they were confluent. Said cells were washed twice with 1 ml of Medium A [Dulbecco's Modified Eagle Medium (DMEM), 20 mM 2-[4-(2-hydroxyethyl)-1-piperazinyl]ethanesulfonic acid (HEPES) (pH 7.5), 0.2% bovine serum albumin and 0.2 mM 3-isobutyl-1-methylxanthine (IBMX)]. The medium A was placed in wells each in a quantity of 400 μl and incubated at 37° C. for an hour. […] The cells were washed twice with 1 ml of Medium A. 500 μl of Medium A and 100 μl of a 20% aqueous perchloric acid solution were placed in each well and left standing for20 minutes at 4° C. to lyse the cells. The lyzate was placed in an Eppendorf's tube and centrifuged (15.000 rpm, 10 minutes). The supernatant was placed in another Eppendorf's tube in quantity of 500 μl and neutralized with 60 mM of a HEPES aqueous solution containing 1.5 M of potassium chloride. The content of cAMP in this extract was determined by the Amersham kit (cAMP EIA system).

Assay [3] addresses T2, human somatostatin receptor protein subtype 3 (SSTR3) (Homo sapiens, UniProt P32745).
T2 construct: expressed in transfected cells; host or cells: CHO (dhfr-) cells, strain SSTR3-15-19
The experiment in a line: Binding inhibition of 125I-somatostatin-14, IC50, SSTR3 membrane fraction. Particulars: 125I-somatostatin-14, CHO cell membrane fraction, 25° C., 60 minutes.

In assay [4] the target is T3, human somatostatin receptor protein subtype 2 (SSTR2) (Homo sapiens, UniProt P30874).
T3 construct: expressed in transfected cells; host or cells: CHO (dhfr-) cells, strain SSTR2-HS5-9
The experiment in a line: Binding inhibition of 125I-somatostatin-14, IC50, SSTR2 membrane fraction. Particulars: 125I-somatostatin-14, CHO cell membrane fraction, 25° C., 60 minutes.

T2 sequence (P32745 whole entry): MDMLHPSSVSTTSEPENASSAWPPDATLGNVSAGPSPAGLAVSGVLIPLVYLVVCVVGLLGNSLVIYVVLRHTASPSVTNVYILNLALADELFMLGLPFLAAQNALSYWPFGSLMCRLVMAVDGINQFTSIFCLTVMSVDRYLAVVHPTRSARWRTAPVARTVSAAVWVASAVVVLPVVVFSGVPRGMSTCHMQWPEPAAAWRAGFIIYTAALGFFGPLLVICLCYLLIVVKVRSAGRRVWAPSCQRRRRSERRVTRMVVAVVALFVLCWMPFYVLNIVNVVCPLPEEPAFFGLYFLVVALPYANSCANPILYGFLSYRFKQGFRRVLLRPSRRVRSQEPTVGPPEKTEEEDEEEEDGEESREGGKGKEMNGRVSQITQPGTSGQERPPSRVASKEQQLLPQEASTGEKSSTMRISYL
T3 sequence (P30874 whole entry): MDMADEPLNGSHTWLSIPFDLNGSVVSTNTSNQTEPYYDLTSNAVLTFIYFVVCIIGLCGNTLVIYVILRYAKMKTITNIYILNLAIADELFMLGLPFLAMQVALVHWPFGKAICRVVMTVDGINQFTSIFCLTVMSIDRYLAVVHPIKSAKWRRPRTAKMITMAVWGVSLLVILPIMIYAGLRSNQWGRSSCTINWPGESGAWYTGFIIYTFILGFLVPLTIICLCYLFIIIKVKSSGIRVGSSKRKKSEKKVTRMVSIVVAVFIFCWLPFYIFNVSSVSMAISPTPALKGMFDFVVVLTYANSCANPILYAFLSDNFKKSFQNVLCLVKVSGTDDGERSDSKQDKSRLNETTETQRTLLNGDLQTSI
T1 sequence (P30937 whole entry): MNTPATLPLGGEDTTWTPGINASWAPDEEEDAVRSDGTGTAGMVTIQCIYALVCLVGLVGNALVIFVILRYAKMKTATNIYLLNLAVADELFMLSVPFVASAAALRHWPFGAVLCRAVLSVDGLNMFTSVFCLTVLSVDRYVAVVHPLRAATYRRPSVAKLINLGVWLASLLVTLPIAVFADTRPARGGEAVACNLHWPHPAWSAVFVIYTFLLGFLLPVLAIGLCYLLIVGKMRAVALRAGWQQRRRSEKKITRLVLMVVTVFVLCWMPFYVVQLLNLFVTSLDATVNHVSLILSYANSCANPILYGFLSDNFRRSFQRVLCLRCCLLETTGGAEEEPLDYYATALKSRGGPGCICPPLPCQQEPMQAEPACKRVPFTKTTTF

The term pIC50 denotes the IC50 on a negative log10 scale, so that one unit is a factor of ten. As usually defined, the inhibition is the drop in the measured response relative to a control, in per cent. For the compound `O=C(CCc1nc(-c2cc3ccccc3o2)no1)N1CC(CN2CCCC2)Cc2ccccc21` (stereo not drawn) [Example 56, 1-[3-(3-(2-Benzofuranyl)-1,2,4-oxadiazol-5-yl]propanoyl]-3-(pirrolidin-1-yl)methyl-1,2,3,4-tetrahydroquinoline oxalate], the pIC50 in assay [1] is 8.00; in assay [2], 8.15. The inhibition at 0.01 µM with rat astrocyte (Astrocyte, compound 10 nM, forskolin 10 μM, rat astrocytes, 37° C., an hour, read-out: inhibition of the intracellular accumulation of cAMP at the time of stimulation by forskolin) is 43%. In addition, the “agonistic effect on the rat somatostatin receptor” value with rat astrocyte (conclusion from cAMP test in rat astrocytes) was “has an agonistic effect”.
For the compound `CN(C)CC1Cc2ccccc2N(C(=O)[C@@H](Cc2c[nH]c3ccccc23)NC(=O)N2CCN(c3ccccc3)CC2)C1` (stereo partly drawn) [Example 88, 3-(R,S)-(N,N-Dimethylamino)methyl-1-[3-(indol-3-yl)-2-[(R)-(4-phenylpiperazin-1-yl)]carbonylaminolpropanoyl]-1,2,3,4-tetrahydroquinoline], the pIC50 in assay [3] was 9.10; in assay [4], 8.05.
As to “Somatostatin-14: Somatostatin-14, the reference peptide in the rat astrocyte cAMP test [reference compound]”, the “inhibition of the intracellular accumulation of cAMP at the time of stimulation by forskolin” value with rat astrocyte (compound 10 nM, forskolin 10 μM, rat astrocytes, 37° C., an hour) amounted to 83%.
`CN(C)CC1Cc2ccccc2N(C(=O)[C@@H](Cc2c[nH]c3ccccc23)NC(=O)N2CCC(n3c(=O)[nH]c4ccccc43)CC2)C1` (stereo partly drawn) [Example 89, 3-(R,S)-(N,N-Dimethylamino)methyl-1-[3-(indol-3-yl)-2-[(R)-4-(2-oxo-2,3-dihydro-1H-benzimidazol-1-yl]piperidinocarbonylamino]propanoyl]-1,2,3,4-tetrahydroquinoline]: the negative-log IC50 (pIC50) in assay [3] is 8.70; in assay [4], 8.52.
